In US20260115250A1, “METHODS OF TREATING AGE-RELATED MACULAR DEGENERATION” (Character Biosciences, Inc., priority 2022, published 2026):

What was measured:
HMC3 cells = experiment: HMC3 cholesterol efflux; assay type: cell-based, human; settings: HMC3, 20 μM peptide, 4 hours
Method: (§1) FIGS. 27A-27B and FIG. 28 illustrate HMC3 cholesterol efflux. Fully confluent 96-well plates of HMC3 cells were treated for 1 hour in serum-free EMEM containing 10 mM methyl-β-cyclodextrin, 100 μM cholesterol, and 25 μM BODIPY cholesterol. Cells were then washed and incubated overnight in serum free EMEM containing 1 μM LXR agonist GW3965, 2 μg/mL ACAT inhibitor, and 0.2% BSA (LXR Agonist treated), or serum-free EMEM containing 2 μg/mL ACAT inhibitor, and 0.2% BSA (Control). Cells were washed and incubated with 20 μM peptides diluted in serum-free Fluorobrite DMEM for 4 hours at 37° C. Media was transferred to a new 96-well plate and fresh serum-free Fluorobrite DMEM was placed on the cells. Media and cellular fluorescence were read on a Promega GloMax at 475 nm excitation, 500-550 emission. Fluorescence values were background corrected from no treatment conditions and percent efflux was calculated by the following equation: % efflux=(Media Fluorescence values)/(Media+Cell Fluorescence values). Data are presented as mean+SD over two runs per peptide.
as §1, with “FIGS. 30A-30J show” for “FIGS. 27A-27B and FIG. 28 illustrate”, “cholesterol efflux titration curves for the indicated peptides.” for “cholesterol efflux.”, “μM” for “μM LXR agonist”, “or serum free” for “or serum-free”, “with 0-100” for “with 20”, “peptides serially” for “peptides”

[1] = key assays (summary statement on homologous variants)
ARPE-19 cells = experiment: ARPE-19 cholesterol efflux; assay type: cell-based, human; settings: ARPE-19, 20 μM peptide, 4 hours
Method: as §1, with “Fully” for “FIGS. 27A-27B and FIG. 28 illustrate HMC3 cholesterol efflux. Fully”, “of ARPE-19” for “of HMC3”, “serum-free DMEM” for “serum-free EMEM”, “in serum-free DMEM” for “in serum free EMEM”, “μM” for “μM LXR agonist”, “or serum free DMEM” for “or serum-free EMEM”

ABCA1 = biological target: T1, ABCA1 (Homo sapiens, UniProt O95477); experiment: membrane ABCA1 stability testing in ARPE-19 cells treated with mCRP; assay type: cell-based; settings: ARPE-19, mCRP, 20 μM peptide, 24 hours
T1 construct: endogenous in cells; host or cells: ARPE-19
T1 sequence (O95477 whole entry): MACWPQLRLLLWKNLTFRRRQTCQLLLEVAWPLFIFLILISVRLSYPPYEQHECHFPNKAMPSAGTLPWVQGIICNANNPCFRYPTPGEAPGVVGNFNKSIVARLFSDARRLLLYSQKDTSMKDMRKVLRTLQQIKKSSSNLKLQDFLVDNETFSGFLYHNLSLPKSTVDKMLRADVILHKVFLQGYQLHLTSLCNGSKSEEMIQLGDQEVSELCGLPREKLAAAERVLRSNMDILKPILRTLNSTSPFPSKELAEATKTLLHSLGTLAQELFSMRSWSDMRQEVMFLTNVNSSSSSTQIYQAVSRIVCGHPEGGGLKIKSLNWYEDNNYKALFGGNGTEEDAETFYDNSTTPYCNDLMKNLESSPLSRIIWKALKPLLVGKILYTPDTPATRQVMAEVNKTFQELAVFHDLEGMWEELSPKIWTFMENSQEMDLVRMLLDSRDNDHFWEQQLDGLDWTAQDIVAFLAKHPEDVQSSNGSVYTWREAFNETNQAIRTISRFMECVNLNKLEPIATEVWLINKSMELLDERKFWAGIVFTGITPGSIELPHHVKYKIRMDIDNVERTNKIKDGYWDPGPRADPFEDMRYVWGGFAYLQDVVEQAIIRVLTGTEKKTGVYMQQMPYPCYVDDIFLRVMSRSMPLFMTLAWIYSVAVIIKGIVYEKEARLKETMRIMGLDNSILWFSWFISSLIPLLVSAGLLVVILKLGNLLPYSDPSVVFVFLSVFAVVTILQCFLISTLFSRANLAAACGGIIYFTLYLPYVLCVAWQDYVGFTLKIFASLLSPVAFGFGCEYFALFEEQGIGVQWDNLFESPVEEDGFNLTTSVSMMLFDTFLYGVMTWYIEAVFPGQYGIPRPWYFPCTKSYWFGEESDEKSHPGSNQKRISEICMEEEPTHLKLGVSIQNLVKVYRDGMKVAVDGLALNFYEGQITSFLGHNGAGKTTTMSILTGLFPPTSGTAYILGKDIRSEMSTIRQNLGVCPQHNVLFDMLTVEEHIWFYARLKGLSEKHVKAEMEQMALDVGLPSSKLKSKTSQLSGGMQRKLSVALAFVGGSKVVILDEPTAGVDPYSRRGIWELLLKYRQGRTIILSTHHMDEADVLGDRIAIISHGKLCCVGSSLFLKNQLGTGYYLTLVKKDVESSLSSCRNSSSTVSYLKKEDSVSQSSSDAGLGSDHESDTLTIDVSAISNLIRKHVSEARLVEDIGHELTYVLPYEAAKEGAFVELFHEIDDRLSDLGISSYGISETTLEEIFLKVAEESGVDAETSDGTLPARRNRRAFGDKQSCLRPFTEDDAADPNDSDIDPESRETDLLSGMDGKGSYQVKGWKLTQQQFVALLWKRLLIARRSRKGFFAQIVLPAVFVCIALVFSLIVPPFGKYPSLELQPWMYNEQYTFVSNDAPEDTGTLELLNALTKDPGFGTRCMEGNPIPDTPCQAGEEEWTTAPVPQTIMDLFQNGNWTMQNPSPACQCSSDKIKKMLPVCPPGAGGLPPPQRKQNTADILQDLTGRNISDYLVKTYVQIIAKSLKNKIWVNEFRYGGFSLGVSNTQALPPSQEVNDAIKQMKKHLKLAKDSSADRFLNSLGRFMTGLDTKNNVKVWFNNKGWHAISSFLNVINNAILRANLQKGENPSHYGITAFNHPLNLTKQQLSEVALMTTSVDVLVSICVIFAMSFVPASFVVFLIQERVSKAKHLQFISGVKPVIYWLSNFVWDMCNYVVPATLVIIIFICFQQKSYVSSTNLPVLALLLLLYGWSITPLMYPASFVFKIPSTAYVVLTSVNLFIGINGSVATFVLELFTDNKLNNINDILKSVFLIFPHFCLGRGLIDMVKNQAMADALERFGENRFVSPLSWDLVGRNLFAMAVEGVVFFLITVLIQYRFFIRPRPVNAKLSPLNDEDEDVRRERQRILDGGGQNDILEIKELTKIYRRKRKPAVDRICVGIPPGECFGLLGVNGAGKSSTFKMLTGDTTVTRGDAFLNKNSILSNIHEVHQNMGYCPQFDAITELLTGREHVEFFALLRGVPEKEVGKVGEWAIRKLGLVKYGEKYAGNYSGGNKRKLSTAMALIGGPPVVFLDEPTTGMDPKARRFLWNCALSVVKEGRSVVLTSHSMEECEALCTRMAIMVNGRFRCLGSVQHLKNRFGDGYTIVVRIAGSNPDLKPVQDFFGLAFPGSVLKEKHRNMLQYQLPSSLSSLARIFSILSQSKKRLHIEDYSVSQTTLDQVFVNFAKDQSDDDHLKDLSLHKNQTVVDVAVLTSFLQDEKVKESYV
Method: ARPE-19 cells were seeded at 100,000 cells per well on 12-well plates and were allowed to grow to confluence. To prepare monomeric CRP (mCRP), recombinant CRP was prepared in a PBS solution containing 8 M Urea and 10 mM EDTA and incubated at 37° C. for 2 hours prior to desalting with a Zeba spin column (7K MW cutoff). mCRP was prepared to a 2× solution of 20 μg/mL. A 2× solution of 40 μM peptides was prepared in serum-free DMEM and serially diluted 1:2 over 4 concentrations. mCRP and peptides were added 1:1 to cells for 24 hours at 37° C. before isolating membrane protein and measuring membrane ABCA1 levels by western blot. Blots were quantified in ImageJ. Signals were further normalized to the LXR agonist treated group to determine percent (%) ABCA1 remaining. Treatment with LXR agonist increased membrane ABCA1 levels in this assay, but following treatment with mCRP, membrane ABCA1 levels were decreased.
FIGS. 35 and 36 show membrane ABCA1 stability testing using ARPE-19 cells. ARPE-19 cells were seeded at 100,000 cells per well on 12-well plates and were allowed to grow to confluence. To prepare monomeric CRP (mCRP), recombinant CRP was prepared in a PBS solution containing 8 M Urea and 10 mM EDTA and incubated at 37° C. for 2 hours prior to desalting with a Zeba spin column (7K MW cutoff). mCRP was prepared to a 2× solution of 20 μg/mL. A 2× solution of 40 μM peptides was prepared in serum-free DMEM. CRP and peptides were added 1:1 to cells for 24 hours at 37° C. before isolating membrane protein and measuring membrane ABCA1 levels by western blot. Blots were quantified in ImageJ. In FIG. 35, Signals were further normalized to the T-087 treated group to determine percent (%) ABCA1 levels compared to peptide T-087 treated cells. In FIG. 36, Signals were further normalized to the peptide T-101 treated group to determine percent (%) ABCA1 levels compared to peptide T-101 treated cells.

Substance | cholesterol efflux following LXR agonist treatment (ARPE-19 cells) | membrane ABCA1 levels compared to peptide T-087 treated cells (ABCA1) | other results
T-122: variant of peptide T-101 (RAGADALESALKELKRFIREWT) | – | – | cholesterol efflux in the presence of LXR agonist (HMC3 cells): greater cholesterol efflux; activity in key assays of polypeptides of the SEQ ID NO. 101 family [1]: sustained or improved activity
T-123: variant of peptide T-101 (RSAADALESALKELKRFIREWT) | – | – | cholesterol efflux in the presence of LXR agonist (HMC3 cells): greater cholesterol efflux; activity in key assays of polypeptides of the SEQ ID NO. 101 family [1]: sustained or improved activity
T-129: variant of peptide T-101 (RSGADALEAALKELKRFIREWT) | – | – | cholesterol efflux in the presence of LXR agonist (HMC3 cells): greater cholesterol efflux; activity in key assays of polypeptides of the SEQ ID NO. 101 family [1]: sustained or improved activity
T-136: variant of peptide T-101 (RSGADALESALKELKAFIREWT) | – | – | cholesterol efflux in the presence of LXR agonist (HMC3 cells): greater cholesterol efflux; activity in key assays of polypeptides of the SEQ ID NO. 101 family [1]: sustained or improved activity
T-139: variant of peptide T-101 (RSGADALESALKELKRFIAEWT) | – | – | cholesterol efflux in the presence of LXR agonist (HMC3 cells): greater cholesterol efflux; activity in key assays of polypeptides of the SEQ ID NO. 101 family [1]: sustained or improved activity
T-152: variant of peptide T-087 (AAWERFRALFKELADYFR) | increased cholesterol efflux | – | activity in key assays of polypeptides homologous to T-087 [1]: sustained or improved activity
T-153: variant of peptide T-087 (DPWERFRALFKELADYFR) | increased cholesterol efflux | – | –
T-154: variant of peptide T-087 (DGWERFRALFKELADYFR) | increased cholesterol efflux | – | –
T-155: variant of peptide T-087 (DAAERFRALFKELADYFR) | increased cholesterol efflux | reduction of membrane ABCA1 levels | –
T-156: variant of peptide T-087 (DAWARFRALFKELADYFR) | increased cholesterol efflux | reduction of membrane ABCA1 levels | –
T-157: variant of peptide T-087 (DAWEAFRALFKELADYFR) | increased cholesterol efflux | reduction of membrane ABCA1 levels | –
T-158: variant of peptide T-087 (DAWERARALFKELADYFR) | increased cholesterol efflux | reduction of membrane ABCA1 levels | –
T-159: variant of peptide T-087 (DAWERFAALFKELADYFR) | increased cholesterol efflux | reduction of membrane ABCA1 levels | –
T-160: variant of peptide T-087 (DAWERFRPLFKELADYFR) | increased cholesterol efflux | – | activity in key assays of polypeptides homologous to T-087 [1]: sustained or improved activity
T-161: variant of peptide T-087 (DAWERFRGLFKELADYFR) | increased cholesterol efflux | – | activity in key assays of polypeptides homologous to T-087 [1]: sustained or improved activity
T-162: variant of peptide T-087 (DAWERFRAAFKELADYFR) | increased cholesterol efflux | reduction of membrane ABCA1 levels | –
T-163: variant of peptide T-087 (DAWERFRALAKELADYFR) | increased cholesterol efflux | – | activity in key assays of polypeptides homologous to T-087 [1]: sustained or improved activity
T-164: variant of peptide T-087 (DAWERFRALFAELADYFR) | increased cholesterol efflux | – | –
T-166: variant of peptide T-087 (DAWERFRALFKEAADYFR) | increased cholesterol efflux | reduction of membrane ABCA1 levels | –
T-167: variant of peptide T-087 (DAWERFRALFKELPDYFR) | increased cholesterol efflux | reduction of membrane ABCA1 levels | –
T-168: variant of peptide T-087 (DAWERFRALFKELGDYFR) | increased cholesterol efflux | – | –
T-170: variant of peptide T-087 (DAWERFRALFKELADAFR) | increased cholesterol efflux | reduction of membrane ABCA1 levels | –
T-171: variant of peptide T-087 (DAWERFRALFKELADYAR) | increased cholesterol efflux | – | –
T-172: variant of peptide T-087 (DAWERFRALFKELADYFA) | increased cholesterol efflux | – | activity in key assays of polypeptides homologous to T-087 [1]: sustained or improved activity
T-174: variant of peptide T-087 (DAWAAARALFKELADYFR) | increased cholesterol efflux | – | –
T-175: variant of peptide T-087 (DAWERFAAAFKELADYFR) | increased cholesterol efflux | – | –
T-176: variant of peptide T-087 (DAWERFRALAAALADYFR) | increased cholesterol efflux | – | –
T-178: variant of peptide T-087 (DAWERFRALFKELADAAA) | increased cholesterol efflux | – | –
